Assays:
[1] = tested on: Tyrosine-protein kinase ABL1 (Homo sapiens), P00519 [F317L]; details: Compound concentration 1000.0 nM
[2] = molecular target: RAC-beta serine/threonine-protein kinase (Homo sapiens) (UniProt P31751); details: Compound concentration 1000.0 nM
[3] = molecular target: Cyclin-dependent kinase 7 (Homo sapiens) (UniProt P50613); details: Compound concentration 1000.0 nM
[4] = molecular target: Macrophage colony-stimulating factor 1 receptor (Homo sapiens) (UniProt P07333); details: Compound concentration 1000.0 nM
Sequence of Macrophage colony-stimulating factor 1 receptor (Homo sapiens) (P07333 whole entry): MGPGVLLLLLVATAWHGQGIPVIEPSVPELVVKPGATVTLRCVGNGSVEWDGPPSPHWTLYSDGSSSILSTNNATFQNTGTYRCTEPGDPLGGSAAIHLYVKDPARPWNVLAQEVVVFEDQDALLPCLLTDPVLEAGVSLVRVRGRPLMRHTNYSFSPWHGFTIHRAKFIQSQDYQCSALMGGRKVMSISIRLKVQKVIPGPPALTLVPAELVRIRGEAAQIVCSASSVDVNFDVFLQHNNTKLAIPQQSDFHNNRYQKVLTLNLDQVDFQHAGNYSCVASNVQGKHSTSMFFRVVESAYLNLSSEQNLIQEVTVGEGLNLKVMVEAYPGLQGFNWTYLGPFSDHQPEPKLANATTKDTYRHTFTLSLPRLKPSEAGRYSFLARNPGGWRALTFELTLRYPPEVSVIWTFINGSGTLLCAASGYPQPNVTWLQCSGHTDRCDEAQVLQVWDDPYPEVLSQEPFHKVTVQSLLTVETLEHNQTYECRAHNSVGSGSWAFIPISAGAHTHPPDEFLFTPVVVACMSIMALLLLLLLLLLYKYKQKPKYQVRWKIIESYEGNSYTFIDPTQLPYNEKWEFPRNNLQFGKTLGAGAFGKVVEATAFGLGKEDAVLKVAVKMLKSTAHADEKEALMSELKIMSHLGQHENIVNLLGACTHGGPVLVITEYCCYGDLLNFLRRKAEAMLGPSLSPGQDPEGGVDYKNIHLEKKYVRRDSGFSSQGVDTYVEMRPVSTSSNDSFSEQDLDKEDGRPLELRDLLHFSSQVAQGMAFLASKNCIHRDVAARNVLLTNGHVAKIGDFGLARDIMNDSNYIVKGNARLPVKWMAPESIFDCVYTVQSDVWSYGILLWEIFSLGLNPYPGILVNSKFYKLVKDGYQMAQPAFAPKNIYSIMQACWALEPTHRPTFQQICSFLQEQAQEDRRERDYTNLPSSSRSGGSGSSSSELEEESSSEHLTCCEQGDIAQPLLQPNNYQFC

[5] = tested on: Epidermal growth factor receptor (Homo sapiens), P00533 [L858R,T790M]; details: Compound concentration 1000.0 nM
[6] = molecular target: T1, Ephrin type-A receptor 3 (Homo sapiens) (UniProt P29320); details: Compound concentration 1000.0 nM
T1 sequence (whole entry): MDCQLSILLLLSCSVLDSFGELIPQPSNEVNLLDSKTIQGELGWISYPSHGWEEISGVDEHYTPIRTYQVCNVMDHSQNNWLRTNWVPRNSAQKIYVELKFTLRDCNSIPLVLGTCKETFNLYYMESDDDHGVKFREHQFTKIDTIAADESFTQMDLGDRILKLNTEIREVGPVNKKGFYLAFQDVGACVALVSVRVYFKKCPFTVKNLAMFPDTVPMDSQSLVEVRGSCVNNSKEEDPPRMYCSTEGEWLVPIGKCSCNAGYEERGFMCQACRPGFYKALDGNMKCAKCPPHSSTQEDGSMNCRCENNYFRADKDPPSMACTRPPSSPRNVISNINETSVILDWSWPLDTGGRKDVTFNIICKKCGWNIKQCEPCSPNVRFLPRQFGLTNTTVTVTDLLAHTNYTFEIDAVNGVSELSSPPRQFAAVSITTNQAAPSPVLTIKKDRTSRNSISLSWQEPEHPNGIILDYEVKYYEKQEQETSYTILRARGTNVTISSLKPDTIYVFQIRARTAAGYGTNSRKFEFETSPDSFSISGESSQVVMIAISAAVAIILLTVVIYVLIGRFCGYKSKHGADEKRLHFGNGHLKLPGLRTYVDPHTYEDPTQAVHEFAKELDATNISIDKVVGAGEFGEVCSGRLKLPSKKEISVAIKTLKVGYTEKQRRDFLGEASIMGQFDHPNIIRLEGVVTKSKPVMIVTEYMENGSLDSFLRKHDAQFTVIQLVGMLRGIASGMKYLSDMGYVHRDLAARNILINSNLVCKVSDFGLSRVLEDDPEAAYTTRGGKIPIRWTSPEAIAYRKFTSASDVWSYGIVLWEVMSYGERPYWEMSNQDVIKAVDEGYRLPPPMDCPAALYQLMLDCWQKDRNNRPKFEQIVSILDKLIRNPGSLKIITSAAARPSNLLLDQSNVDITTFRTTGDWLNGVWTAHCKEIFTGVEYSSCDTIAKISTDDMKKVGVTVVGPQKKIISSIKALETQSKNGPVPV

[7] = molecular target: Fibroblast growth factor receptor 2 (Homo sapiens) (UniProt P21802); details: Compound concentration 1000.0 nM
Sequence of Fibroblast growth factor receptor 2 (Homo sapiens) (P21802 22-821 limits assumed): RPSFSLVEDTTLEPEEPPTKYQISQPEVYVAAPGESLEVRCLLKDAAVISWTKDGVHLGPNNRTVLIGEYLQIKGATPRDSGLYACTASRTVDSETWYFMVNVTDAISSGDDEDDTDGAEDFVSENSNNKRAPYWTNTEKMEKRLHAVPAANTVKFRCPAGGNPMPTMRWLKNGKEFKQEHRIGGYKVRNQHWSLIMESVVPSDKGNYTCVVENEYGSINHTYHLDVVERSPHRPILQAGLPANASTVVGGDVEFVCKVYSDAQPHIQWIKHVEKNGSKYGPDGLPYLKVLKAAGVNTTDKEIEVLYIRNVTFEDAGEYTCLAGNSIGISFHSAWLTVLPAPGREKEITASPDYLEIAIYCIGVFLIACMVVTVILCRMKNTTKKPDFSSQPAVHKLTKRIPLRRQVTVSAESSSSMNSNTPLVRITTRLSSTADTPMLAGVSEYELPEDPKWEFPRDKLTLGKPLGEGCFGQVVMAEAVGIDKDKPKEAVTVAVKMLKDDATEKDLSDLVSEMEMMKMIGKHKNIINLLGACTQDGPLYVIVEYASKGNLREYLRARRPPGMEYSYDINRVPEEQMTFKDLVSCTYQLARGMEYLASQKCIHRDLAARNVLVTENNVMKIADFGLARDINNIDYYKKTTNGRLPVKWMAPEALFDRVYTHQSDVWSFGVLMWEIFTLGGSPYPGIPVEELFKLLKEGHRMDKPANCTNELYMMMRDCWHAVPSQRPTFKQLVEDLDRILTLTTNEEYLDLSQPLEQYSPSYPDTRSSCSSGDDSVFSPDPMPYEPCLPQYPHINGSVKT

[8] = molecular target: Serine/threonine-protein kinase 24 (Homo sapiens, UniProt Q9Y6E0); details: Compound concentration 1000.0 nM
Sequence of Serine/threonine-protein kinase 24 (Q9Y6E0 whole entry, looked up): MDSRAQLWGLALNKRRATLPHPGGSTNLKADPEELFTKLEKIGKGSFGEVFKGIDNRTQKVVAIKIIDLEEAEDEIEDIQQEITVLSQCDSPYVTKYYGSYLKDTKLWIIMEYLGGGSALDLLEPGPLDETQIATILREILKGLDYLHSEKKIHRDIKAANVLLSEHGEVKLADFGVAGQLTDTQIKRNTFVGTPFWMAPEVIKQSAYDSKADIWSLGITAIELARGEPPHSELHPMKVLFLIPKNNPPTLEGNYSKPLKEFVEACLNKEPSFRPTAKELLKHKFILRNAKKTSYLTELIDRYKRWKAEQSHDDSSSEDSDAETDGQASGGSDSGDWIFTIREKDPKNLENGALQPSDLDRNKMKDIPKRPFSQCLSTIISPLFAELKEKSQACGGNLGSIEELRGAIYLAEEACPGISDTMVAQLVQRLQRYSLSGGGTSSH

[9] = molecular target: Mitogen-activated protein kinase 11 (Homo sapiens) (UniProt Q15759); details: Compound concentration 1000.0 nM
Sequence of Mitogen-activated protein kinase 11 (Homo sapiens) (Q15759 whole entry): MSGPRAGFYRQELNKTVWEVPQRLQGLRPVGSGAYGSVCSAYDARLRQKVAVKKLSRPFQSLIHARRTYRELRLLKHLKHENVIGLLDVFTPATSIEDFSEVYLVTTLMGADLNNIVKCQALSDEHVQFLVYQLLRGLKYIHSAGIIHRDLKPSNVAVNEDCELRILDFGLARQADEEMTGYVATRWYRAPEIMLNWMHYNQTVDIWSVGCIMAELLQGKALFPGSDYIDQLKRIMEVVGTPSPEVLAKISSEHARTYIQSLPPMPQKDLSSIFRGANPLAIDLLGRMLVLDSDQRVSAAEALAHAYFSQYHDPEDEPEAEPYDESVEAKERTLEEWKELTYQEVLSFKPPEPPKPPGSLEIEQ

[10] = molecular target: T2, Serine/threonine-protein kinase D1 (Homo sapiens) (UniProt Q15139); details: Compound concentration 1000.0 nM
T2 sequence (whole entry): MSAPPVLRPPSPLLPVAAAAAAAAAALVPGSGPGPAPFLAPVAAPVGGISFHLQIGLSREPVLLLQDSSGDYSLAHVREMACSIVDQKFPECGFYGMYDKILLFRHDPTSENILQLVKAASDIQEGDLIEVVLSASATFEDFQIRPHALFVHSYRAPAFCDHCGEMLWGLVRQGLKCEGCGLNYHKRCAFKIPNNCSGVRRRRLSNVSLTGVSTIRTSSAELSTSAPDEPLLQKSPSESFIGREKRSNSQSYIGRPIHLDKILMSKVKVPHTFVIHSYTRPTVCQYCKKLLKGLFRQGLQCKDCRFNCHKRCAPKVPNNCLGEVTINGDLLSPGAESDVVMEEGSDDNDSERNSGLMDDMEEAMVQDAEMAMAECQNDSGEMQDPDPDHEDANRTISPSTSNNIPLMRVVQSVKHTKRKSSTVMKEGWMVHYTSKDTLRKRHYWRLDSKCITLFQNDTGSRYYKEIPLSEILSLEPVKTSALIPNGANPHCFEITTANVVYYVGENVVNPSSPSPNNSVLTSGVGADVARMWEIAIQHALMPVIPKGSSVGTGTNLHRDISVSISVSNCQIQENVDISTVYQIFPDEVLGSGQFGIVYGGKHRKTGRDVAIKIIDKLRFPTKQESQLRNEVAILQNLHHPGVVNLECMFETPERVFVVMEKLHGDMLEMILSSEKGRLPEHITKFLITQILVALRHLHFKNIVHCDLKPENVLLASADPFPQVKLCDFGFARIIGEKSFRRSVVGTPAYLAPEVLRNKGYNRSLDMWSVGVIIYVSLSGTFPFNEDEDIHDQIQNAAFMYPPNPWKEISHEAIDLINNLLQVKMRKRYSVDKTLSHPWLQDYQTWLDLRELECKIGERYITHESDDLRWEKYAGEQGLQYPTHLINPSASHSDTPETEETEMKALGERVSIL

[11] = molecular target: T3, Serine/threonine-protein kinase Sgk3 (Homo sapiens) (UniProt Q96BR1); details: Compound concentration 1000.0 nM
T3 sequence (whole entry): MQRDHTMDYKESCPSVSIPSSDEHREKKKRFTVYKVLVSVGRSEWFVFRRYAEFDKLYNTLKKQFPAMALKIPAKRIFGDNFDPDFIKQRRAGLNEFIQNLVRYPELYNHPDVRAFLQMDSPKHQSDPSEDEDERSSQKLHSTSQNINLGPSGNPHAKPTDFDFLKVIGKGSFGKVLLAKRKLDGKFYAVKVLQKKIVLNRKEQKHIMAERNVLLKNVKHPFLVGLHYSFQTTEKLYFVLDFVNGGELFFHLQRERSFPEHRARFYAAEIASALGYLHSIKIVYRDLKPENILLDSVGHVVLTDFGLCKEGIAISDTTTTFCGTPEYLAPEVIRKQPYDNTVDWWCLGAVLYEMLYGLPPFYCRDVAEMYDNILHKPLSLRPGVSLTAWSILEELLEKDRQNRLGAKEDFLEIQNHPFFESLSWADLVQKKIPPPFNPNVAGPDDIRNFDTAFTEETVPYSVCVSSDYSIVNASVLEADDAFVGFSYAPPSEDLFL

[12] = molecular target: Beta-1 adrenergic receptor (Homo sapiens) (UniProt P08588); details: Compound concentration 10.0 uM
[13] = molecular target: Muscarinic acetylcholine receptor M2 (Homo sapiens) (UniProt P08172); details: Compound concentration 10.0 uM
Sequence of Muscarinic acetylcholine receptor M2 (Homo sapiens) (P08172 whole entry): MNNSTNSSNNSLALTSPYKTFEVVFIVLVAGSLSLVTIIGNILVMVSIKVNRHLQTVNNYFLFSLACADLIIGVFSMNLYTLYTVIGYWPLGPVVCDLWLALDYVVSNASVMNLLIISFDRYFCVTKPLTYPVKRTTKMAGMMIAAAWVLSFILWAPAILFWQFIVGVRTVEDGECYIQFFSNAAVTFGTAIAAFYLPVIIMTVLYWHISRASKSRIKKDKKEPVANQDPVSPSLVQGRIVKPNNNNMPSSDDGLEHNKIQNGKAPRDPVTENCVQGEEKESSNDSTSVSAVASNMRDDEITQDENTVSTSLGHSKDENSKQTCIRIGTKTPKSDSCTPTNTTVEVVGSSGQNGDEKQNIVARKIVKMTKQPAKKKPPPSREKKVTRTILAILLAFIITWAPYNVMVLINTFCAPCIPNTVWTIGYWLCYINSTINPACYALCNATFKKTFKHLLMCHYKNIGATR

Sequence of Tyrosine-protein kinase ABL1 (Homo sapiens), P00519 [F317L] (P00519 whole entry F317L): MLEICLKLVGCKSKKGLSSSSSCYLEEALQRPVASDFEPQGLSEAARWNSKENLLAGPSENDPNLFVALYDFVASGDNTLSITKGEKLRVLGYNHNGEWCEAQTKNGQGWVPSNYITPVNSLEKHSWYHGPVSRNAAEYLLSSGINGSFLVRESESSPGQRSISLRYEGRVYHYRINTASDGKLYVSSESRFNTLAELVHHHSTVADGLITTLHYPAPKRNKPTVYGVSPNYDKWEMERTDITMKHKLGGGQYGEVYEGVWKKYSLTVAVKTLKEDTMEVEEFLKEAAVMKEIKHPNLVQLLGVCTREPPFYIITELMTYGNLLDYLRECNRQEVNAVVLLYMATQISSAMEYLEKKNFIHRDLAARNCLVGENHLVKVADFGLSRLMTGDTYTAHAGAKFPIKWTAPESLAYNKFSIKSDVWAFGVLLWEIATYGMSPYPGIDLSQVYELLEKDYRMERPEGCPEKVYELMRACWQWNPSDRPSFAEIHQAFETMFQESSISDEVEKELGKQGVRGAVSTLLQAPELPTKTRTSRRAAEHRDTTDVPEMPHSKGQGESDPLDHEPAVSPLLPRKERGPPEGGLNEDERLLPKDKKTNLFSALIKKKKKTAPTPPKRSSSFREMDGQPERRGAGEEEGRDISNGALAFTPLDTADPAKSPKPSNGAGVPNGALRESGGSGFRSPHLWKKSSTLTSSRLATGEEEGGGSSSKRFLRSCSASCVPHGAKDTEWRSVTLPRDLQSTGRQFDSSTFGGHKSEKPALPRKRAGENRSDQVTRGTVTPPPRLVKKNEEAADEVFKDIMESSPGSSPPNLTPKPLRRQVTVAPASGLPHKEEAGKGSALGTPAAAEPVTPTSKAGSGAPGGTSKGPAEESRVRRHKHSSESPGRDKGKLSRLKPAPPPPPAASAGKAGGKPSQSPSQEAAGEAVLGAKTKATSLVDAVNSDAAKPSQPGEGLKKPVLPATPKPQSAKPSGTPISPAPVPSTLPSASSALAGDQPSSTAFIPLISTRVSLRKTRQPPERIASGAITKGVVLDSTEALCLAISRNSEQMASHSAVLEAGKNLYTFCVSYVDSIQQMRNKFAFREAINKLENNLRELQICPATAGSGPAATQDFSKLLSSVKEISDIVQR
Sequence of Cyclin-dependent kinase 7 (Homo sapiens) (P50613 whole entry): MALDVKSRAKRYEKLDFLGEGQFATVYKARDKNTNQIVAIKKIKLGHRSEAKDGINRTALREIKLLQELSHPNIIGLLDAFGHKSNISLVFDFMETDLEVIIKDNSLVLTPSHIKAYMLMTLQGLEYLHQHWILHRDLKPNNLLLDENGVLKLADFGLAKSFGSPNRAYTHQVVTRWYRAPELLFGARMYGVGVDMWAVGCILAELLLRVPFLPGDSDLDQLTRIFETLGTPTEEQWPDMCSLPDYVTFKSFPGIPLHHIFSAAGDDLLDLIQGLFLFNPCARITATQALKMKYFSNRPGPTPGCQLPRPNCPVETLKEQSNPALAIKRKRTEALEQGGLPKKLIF
Sequence of RAC-beta serine/threonine-protein kinase (Homo sapiens) (P31751 whole entry): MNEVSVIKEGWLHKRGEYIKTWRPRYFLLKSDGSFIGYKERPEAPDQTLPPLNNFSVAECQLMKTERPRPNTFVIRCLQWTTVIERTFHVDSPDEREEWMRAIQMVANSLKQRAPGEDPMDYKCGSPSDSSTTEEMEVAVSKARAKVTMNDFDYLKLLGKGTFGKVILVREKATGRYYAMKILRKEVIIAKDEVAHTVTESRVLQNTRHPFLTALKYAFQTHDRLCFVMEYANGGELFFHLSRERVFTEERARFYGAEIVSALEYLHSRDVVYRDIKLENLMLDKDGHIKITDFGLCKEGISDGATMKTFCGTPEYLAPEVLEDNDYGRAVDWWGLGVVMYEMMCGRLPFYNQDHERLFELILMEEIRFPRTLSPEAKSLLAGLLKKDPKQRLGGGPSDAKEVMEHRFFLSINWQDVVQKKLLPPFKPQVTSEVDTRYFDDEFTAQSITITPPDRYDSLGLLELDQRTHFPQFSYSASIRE

CC1=C(C#N)C(c2ccc3c(c2)c(NC(=O)c2ccccc2C)nn3C)C(C#N)=C(C)N1 [BAY-974]
inactive: residual activity [1] 91% | residual activity [2] 100% | residual activity [3] 58% | residual activity [4] 99% | residual activity [5] 93% | residual activity [6] 99% | residual activity [7] 97% | residual activity [8] 100% | residual activity [9] 100% | residual activity [10] 92% | residual activity [11] 95% | inhibition [12] -7.79% | inhibition [13] -2.08%

CCc1ccccc1C(=O)Nc1n[nH]c2c(C)c(F)c(C3C(C#N)=C(C)N(C)C(C)=C3C#N)cc12 [BAY-3827]
inactive: residual activity [1] 89% | residual activity [2] 95% | residual activity [3] 90% | residual activity [4] 100% | residual activity [5] 97% | residual activity [6] 100% | residual activity [7] 83% | residual activity [8] 90% | residual activity [9] 91% | residual activity [10] 100% | residual activity [11] 91% | inhibition [12] 1.59% | inhibition [13] 5.1%

Reference: ChEMBL document CHEMBL4507319 (2021)
